In patent US10294202B2, “Pyrrolidinones as herbicides” (FMC Corporation, priority 2013, dated 2019):

Key:
wheat = assay: Test A pre-/postemergence herbicide test; format: in vivo, Triticum aestivum; settings: Postemergence
Method in brief: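 Visual 0–100 ratings (100 = complete control) made about 10 days after treatment, greenhouse-held plants compared with untreated controls. Treatments: postemergence sprays on one- to two-leaf plants (2–10 cm tall) and preemergence directed soil sprays after planting in loam–sand, chemicals formulated in non-phytotoxic solvent containing surfactant.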

blackgrass = assay: Test C pre-/postemergence herbicide test; format: in vivo, Alopecurus myosuroides
Method in brief: (§1)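 Greenhouse plants scored visually against untreated controls 13–15 days after treatment, 0 = no effect, 100 = complete control. Test chemicals in a non-phytotoxic solvent with surfactant were applied either to soil (loam/sand) at planting or to foliage of 1- to 4-leaf plants, 2–18 cm tall.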

ryegrass, Italian = assay: Test C pre-/postemergence herbicide test; format: in vivo, Lolium multiflorum
Method in brief: as §1

galium = assay: Test C pre-/postemergence herbicide test; format: in vivo, Galium aparine
Method in brief: as §1

corn = assay: Test C pre-/postemergence herbicide test; format: in vivo, Zea mays
Method in brief: as §1

crabgrass, large = assay: Test C pre-/postemergence herbicide test; format: in vivo, Digitaria sanguinalis
Method in brief: as §1

johnsongrass = assay: Test C pre-/postemergence herbicide test; format: in vivo, Sorghum halepense
Method in brief: as §1

ragweed = assay: Test C pre-/postemergence herbicide test; format: in vivo, Ambrosia elatior
Method in brief: as §1

soybean = assay: Test C pre-/postemergence herbicide test; format: in vivo, Glycine max
Method in brief: as §1

oilseed rape = assay: Test C pre-/postemergence herbicide test; format: in vivo, Brassica napus
Method in brief: as §1

waterhemp = assay: Test C pre-/postemergence herbicide test; format: in vivo, Amaranthus rudis
Method in brief: as §1

oat, wild = assay: Test C pre-/postemergence herbicide test; format: in vivo, Avena fatua; settings: Postemergence
Method in brief: as §1

[1] = Postemergence, 31 g ai/ha, scale 0 (no effect) to 100 (complete control)
[2] = Postemergence, 62 g ai/ha, scale 0 to 100 (0 no effect, 100 complete control)
[3] = Postemergence, 125 g ai/ha, scale 0 to 100 (0 no effect, 100 complete control)
[4] = Postemergence, 250 g ai/ha, scale 0 to 100 (0 no effect, 100 complete control)
[5] = Preemergence, 31 g ai/ha, scale 0 to 100, 0 is no effect and 100 is complete control
[6] = Preemergence, 62 g ai/ha, scale 0 to 100
[7] = Preemergence, 125 g ai/ha, scale 0 to 100 (0 no effect, 100 complete control)

## Cc1ccccc1NC(=O)C1C(=O)NCC1c1cccc(C(F)(F)F)c1 (racemic) [Compound 109]
wheat; 125 g ai/ha, 0 to 100 scale, 0 no effect, 100 complete control
  Plant response rating, Wheat: 20
wheat; 500 g ai/ha, 0 to 100 scale (0 no effect, 100 complete control)
  Plant response rating, Wheat: 60
blackgrass; [1]
  Plant response rating, Blackgrass: 0
blackgrass; [2]
  Plant response rating, Blackgrass: 0
blackgrass; [3]
  Plant response rating, Blackgrass: 0
blackgrass; [4]
  Plant response rating, Blackgrass: 0
blackgrass; [5]
  Blackgrass plant response rating: 0
blackgrass; [6]
  Plant response rating, Blackgrass: 60
blackgrass; [7]
  Plant response rating, Blackgrass: 90
blackgrass; Preemergence, 250 g ai/ha
  Plant response rating (scale of 0 to 100), Blackgrass: 95
ryegrass, Italian; [1]
  Plant response rating, Ryegrass, Italian: 0
ryegrass, Italian; [2]
  Plant response rating, Ryegrass, Italian: 0
ryegrass, Italian; [3]
  Plant response rating, Ryegrass, Italian: 0
ryegrass, Italian; [4]
  Plant response rating, Ryegrass, Italian: 0
ryegrass, Italian; [5]
  Ryegrass, Italian plant response rating: 0
ryegrass, Italian; [6]
  Plant response rating, Ryegrass, Italian: 40
ryegrass, Italian; [7]
  Plant response rating, Ryegrass, Italian: 20
ryegrass, Italian; Preemergence, 250 g ai/ha
  Plant response rating (scale of 0 to 100), Ryegrass, Italian: 70
galium; [1]
  Plant response rating, Galium: 0
galium; [2]
  Plant response rating, Galium: 0
galium; [3]
  Plant response rating, Galium: 30
galium; [4]
  Plant response rating, Galium: 30
galium; [5]
  Galium plant response rating: 60
galium; [6]
  Plant response rating, Galium: 100
galium; [7]
  Plant response rating, Galium: 50
galium; Preemergence, 250 g ai/ha
  Plant response rating (scale of 0 to 100), Galium: 100
corn; [1]
  Plant response rating, Corn: 0
corn; [2]
  Plant response rating, Corn: 0
corn; [3]
  Plant response rating, Corn: 0
corn; [4]
  Plant response rating, Corn: 5
corn; [5]
  Corn plant response rating: 0
corn; [6]
  Plant response rating, Corn: 5
corn; [7]
  Plant response rating, Corn: 60
corn; Preemergence, 250 g ai/ha
  Plant response rating (scale of 0 to 100), Corn: 75
crabgrass, large; [1]
  Plant response rating, Crabgrass, Large: 10
crabgrass, large; [2]
  Plant response rating, Crabgrass, Large: 10
crabgrass, large; [3]
  Plant response rating, Crabgrass, Large: 40
crabgrass, large; [4]
  Plant response rating, Crabgrass, Large: 70
crabgrass, large; [5]
  Crabgrass, Large plant response rating: 98
crabgrass, large; [6]
  Plant response rating, Crabgrass, Large: 100
crabgrass, large; [7]
  Plant response rating, Crabgrass, Large: 100
crabgrass, large; Preemergence, 250 g ai/ha
  Plant response rating (scale of 0 to 100), Crabgrass, Large: 100
johnsongrass; [1]
  Plant response rating, Johnsongrass: 0
johnsongrass; [2]
  Plant response rating, Johnsongrass: 0
johnsongrass; [3]
  Plant response rating, Johnsongrass: 0
johnsongrass; [4]
  Plant response rating, Johnsongrass: 0
johnsongrass; [5]
  Johnsongrass plant response rating: 0
johnsongrass; [6]
  Plant response rating, Johnsongrass: 10
johnsongrass; [7]
  Plant response rating, Johnsongrass: 40
johnsongrass; Preemergence, 250 g ai/ha
  Plant response rating (scale of 0 to 100), Johnsongrass: 70
ragweed; [1]
  Plant response rating, Ragweed: 0
ragweed; [2]
  Plant response rating, Ragweed: 0
ragweed; [3]
  Plant response rating, Ragweed: 0
ragweed; [4]
  Plant response rating, Ragweed: 5
ragweed; [5]
  Ragweed plant response rating: 0
ragweed; [6]
  Plant response rating, Ragweed: 0
ragweed; [7]
  Plant response rating, Ragweed: 0
ragweed; Preemergence, 250 g ai/ha
  Plant response rating (scale of 0 to 100), Ragweed: 10
soybean; [1]
  Plant response rating, Soybean: 0
soybean; [2]
  Plant response rating, Soybean: 0
soybean; [3]
  Plant response rating, Soybean: 5
soybean; [4]
  Plant response rating, Soybean: 5
soybean; [5]
  Soybean plant response rating: 100
soybean; [6]
  Plant response rating, Soybean: 0
soybean; [7]
  Plant response rating, Soybean: 55
soybean; Preemergence, 250 g ai/ha
  Plant response rating (scale of 0 to 100), Soybean: 0
Oilseed rape; [1]
  Plant response rating, Oilseed Rape: 0
Oilseed rape; [2]
  Plant response rating, Oilseed Rape: 0
Oilseed rape; [3]
  Plant response rating, Oilseed Rape: 5
Oilseed rape; [4]
  Plant response rating, Oilseed Rape: 5
Oilseed rape; [5]
  Oilseed Rape plant response rating: 0
Oilseed rape; [6]
  Plant response rating, Oilseed Rape: 0
Oilseed rape; [7]
  Plant response rating, Oilseed Rape: 5
Oilseed rape; Preemergence, 250 g ai/ha
  Plant response rating (scale of 0 to 100), Oilseed Rape: 40
waterhemp; [1]
  Plant response rating, Waterhemp: 0
waterhemp; [2]
  Plant response rating, Waterhemp: 0
waterhemp; [3]
  Plant response rating, Waterhemp: 0
waterhemp; [4]
  Plant response rating, Waterhemp: 0
waterhemp; [5]
  Waterhemp plant response rating: 0
waterhemp; [6]
  Plant response rating, Waterhemp: 50
waterhemp; [7]
  Plant response rating, Waterhemp: 0
waterhemp; Preemergence, 250 g ai/ha
  Plant response rating (scale of 0 to 100), Waterhemp: 20
oat, wild; 31 g ai/ha, scale 0 (no effect) to 100 (complete control)
  Plant response rating, Oat, Wild: 0
oat, wild; 62 g ai/ha, scale 0 to 100 (0 no effect, 100 complete control)
  Plant response rating, Oat, Wild: 0
oat, wild; 125 g ai/ha, scale 0 to 100 (0 no effect, 100 complete control)
  Plant response rating, Oat, Wild: 0
oat, wild; 250 g ai/ha, scale 0 to 100 (0 no effect, 100 complete control)
  Plant response rating, Oat, Wild: 0
